The results in this text go back to PubChem BioAssay AID248 (DTP/NCI, 2004).

The assay has as its system L1210 leukemia ip in BDF1 mice, survival T/C. The assay can be described thus: NCI In Vivo Anticancer Drug Screen. Data for tumor model L1210 Leukemia (intraperitoneal) in B6D2F1 (BDF1) mice. As to conditions: endpoint: mean survival time, higher = longer survival. In a few lines:
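Read-out is survival time, reported as the treated-group measurement over the vehicle-control measurement.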

Where [1] appears, read: dose: 100.0 mg/kg/injection, schedule: Q01DX001 (ip), vehicle: saline.
Where [2] appears, read: dose: 200.0 mg/kg/injection, schedule: Q01DX001 (ip), vehicle: saline.
The mark [3] stands for this setting: dose: 400.0 mg/kg/injection, schedule: Q01DX001 (ip), vehicle: saline.
[4] abbreviates: dose: 50.0 mg/kg/injection, schedule: Q01DX001 (ip), vehicle: saline.
Setting [5] is: dose: 100.0 mg/kg/injection, schedule: Q04DX002 (ip), vehicle: Klucel (hydroxypropylcellulose) (HPC).
The mark [6] stands for this setting: dose: 200.0 mg/kg/injection, schedule: Q04DX002 (ip), vehicle: Klucel (hydroxypropylcellulose) (HPC).
The mark [7] stands for this setting: dose: 400.0 mg/kg/injection, schedule: Q04DX002 (ip), vehicle: Klucel (hydroxypropylcellulose) (HPC).
Where [8] appears, read: dose: 100.0 mg/kg/injection, schedule: Q01DX009 (ip), vehicle: Klucel (hydroxypropylcellulose) (HPC).
Where [9] appears, read: dose: 100.0 mg/kg/injection, schedule: Q04DX003 (ip), vehicle: saline.
[10] abbreviates: dose: 200.0 mg/kg/injection, schedule: Q01DX009 (ip), vehicle: Klucel (hydroxypropylcellulose) (HPC).
Setting [11] is: dose: 200.0 mg/kg/injection, schedule: Q04DX003 (ip), vehicle: saline.
[12] abbreviates: dose: 400.0 mg/kg/injection, schedule: Q01DX009 (ip), vehicle: Klucel (hydroxypropylcellulose) (HPC).
The mark [13] stands for this setting: dose: 400.0 mg/kg/injection, schedule: Q04DX003 (ip), vehicle: saline.
The mark [14] stands for this setting: dose: 100.0 mg/kg/injection, schedule: Q01DX001 (ip), vehicle: Klucel (hydroxypropylcellulose) (HPC).
Setting [15] is: dose: 200.0 mg/kg/injection, schedule: Q01DX001 (ip), vehicle: Klucel (hydroxypropylcellulose) (HPC).
The mark [16] stands for this setting: dose: 400.0 mg/kg/injection, schedule: Q01DX001 (ip), vehicle: Klucel (hydroxypropylcellulose) (HPC).
Where [17] appears, read: dose: 50.0 mg/kg/injection, schedule: Q01DX009 (ip), vehicle: saline with Tween-80.
Setting [18] is: dose: 100.0 mg/kg/injection, schedule: Q01DX009 (ip), vehicle: saline with Tween-80.
[19] abbreviates: dose: 200.0 mg/kg/injection, schedule: Q01DX009 (ip), vehicle: saline with Tween-80.
[20] abbreviates: dose: 100.0 mg/kg/injection, schedule: Q04DX003 (ip), vehicle: saline with Tween-80.
Where [21] appears, read: dose: 200.0 mg/kg/injection, schedule: Q04DX003 (ip), vehicle: saline with Tween-80.
[22] abbreviates: dose: 400.0 mg/kg/injection, schedule: Q04DX003 (ip), vehicle: saline with Tween-80.
Setting [23] is: dose: 100.0 mg/kg/injection, schedule: Q04DX003 (ip), vehicle: Klucel (hydroxypropylcellulose) (HPC).
The mark [24] stands for this setting: dose: 200.0 mg/kg/injection, schedule: Q04DX003 (ip), vehicle: Klucel (hydroxypropylcellulose) (HPC).

“And” between values parts separate entries of the source, which are not always exact repeats. Equal entries are not always repeated. Inconclusive results and toxic doses are left out.

`O=C(O)C1CCCC2C(O)CCC(=O)C12` (configuration not stated): the T/C under setting [1] is 95 % of control and 107 % of control; the T/C (dose: 100.0 mg/kg/injection, schedule: Q01DX009 (ip), vehicle: saline sonified) was 98 % of control; the T/C (dose: 100.0 mg/kg/injection, schedule: Q04DX003 (ip), vehicle: saline sonified) is 100 % of control; the T/C under setting [2] was 104 % of control and 101 % of control; the T/C (dose: 200.0 mg/kg/injection, schedule: Q01DX009 (ip), vehicle: saline sonified) is 102 % of control; the T/C (dose: 200.0 mg/kg/injection, schedule: Q04DX003 (ip), vehicle: saline sonified) is 92 % of control. Further, the T/C under setting [3] is 107 % of control and 96 % of control; the T/C (dose: 400.0 mg/kg/injection, schedule: Q01DX009 (ip), vehicle: saline sonified) is 93 % of control; the T/C (dose: 400.0 mg/kg/injection, schedule: Q04DX003 (ip), vehicle: saline sonified) was 95 % of control.
As to `O=C(N/N=C\c1cc(=O)[nH]c(=O)[nH]1)c1ccncc1`, the T/C was 90 % of control under setting [4], 95 % of control under setting [1] and 95 % of control under setting [2].
For `c1ccc(C2CCN3c4ccc5ccccc5c4NCC23)cc1` (configuration not stated), the T/C under setting [5] is 107 % of control, the T/C under setting [6] was 93 % of control and the T/C under setting [7] is 93 % of control.
Consider `Cc1cc2nc3c(=O)[nH]c(=O)nc-3n(CCOC(=O)CCC(=O)O)c2cc1C`, for which the T/C runs as follows: under setting [4], 116 % of control; under setting [1], 103 % of control; under setting [2], 114 % of control; under setting [3], 103 % of control.
For `CC(=O)NCCCCCCNC(C)=O`, the T/C by setting is: (dose: 10.0 mg/kg/injection, schedule: Q01DX Z (ip), vehicle: saline) 100 % of control; (dose: 30.0 mg/kg/injection, schedule: Q01DX Z (ip), vehicle: saline) 104 % of control; (dose: 100.0 mg/kg/injection, schedule: Q01DX Z (ip), vehicle: saline) 100 % of control; (dose: 300.0 mg/kg/injection, schedule: Q01DX Z (ip), vehicle: saline) 100 % of control.
With `N#C/C=C/C=C/C#N`, the T/C (dose: 75.0 mg/kg/injection, schedule: Q01DX001 (ip), vehicle: other) is 98 % of control and the T/C (dose: 150.0 mg/kg/injection, schedule: Q01DX001 (ip), vehicle: other) was 103 % of control.
For the compound `COc1ccc2c(c1)c(=O)c(C(=O)O)cn2CCCOc1ccc([N+](=O)[O-])cc1`, the T/C is 96 % of control under setting [8]; 107 % of control under setting [9]; 106 % of control under setting [10]; 100 % of control under setting [11]; 93 % of control under setting [12]; 94 % of control under setting [13].
On to `Nc1cccc(/C=C/c2ccncc2)c1`, for which the T/C runs as follows: under setting [8], 97 % of control; under setting [10], 94 % of control; under setting [12], 95 % of control.
For the compound `CN1CCC/C1=N\c1nn[nH]n1`, the T/C is 106 % of control under setting [14], 97 % of control under setting [15] and 93 % of control under setting [16].
As to `CC(=O)C1CCC2C3CCC4=CC(=O)CC4(C)C3CCC12C` (configuration not stated), the T/C runs as follows: under setting [17], 113 % of control; under setting [18], 105 % of control; under setting [19], 90 % of control.
In the case of `CC1CC(C)CC(C)C(O)/C(C#N)=C/C=C/CC(C2CCCC2C(=O)O)OC(=O)CC(O)C(C)C1` (configuration not stated), the T/C was 98 % of control (dose: 0.5 mg/kg/injection, schedule: Q01DX009 (ip), vehicle: saline with Tween-80); 104 % of control (dose: 1.0 mg/kg/injection, schedule: Q01DX009 (ip), vehicle: saline with Tween-80); 96 % of control (dose: 2.0 mg/kg/injection, schedule: Q01DX009 (ip), vehicle: saline with Tween-80).
As for `CC1CN=C(c2ccc(NC(=O)NCCCCCCCCCNC(=O)Nc3ccc(C4=NCC(C)N4)cc3)cc2)N1` (configuration not stated), the T/C is 86 % of control (dose: 6.5 mg/kg/injection, schedule: Q01DX Z (ip), vehicle: carboxymethylcellulose (CMC)); 100 % of control (dose: 13.0 mg/kg/injection, schedule: Q01DX Z (ip), vehicle: carboxymethylcellulose (CMC)); 106 % of control (dose: 26.0 mg/kg/injection, schedule: Q01DX Z (ip), vehicle: carboxymethylcellulose (CMC)); 107 % of control (dose: 52.0 mg/kg/injection, schedule: Q01DX Z (ip), vehicle: carboxymethylcellulose (CMC)).
As to `CCOC(=O)/C(N=O)=C(/O)c1ccccc1`, the T/C reads like this: under setting [20], 103 % of control; under setting [21], 94 % of control; under setting [22], 96 % of control.
As to `CCCCCCCCSC(=S)S.[Fe]`, the T/C under setting [5] is 88 % of control, the T/C under setting [6] was 95 % of control and the T/C under setting [7] was 91 % of control.
For `COC(=O)CC(O)C(=O)OC` (configuration not stated), the T/C was 102 % of control (dose: 100.0 mg/kg/injection, schedule: Q01DX009 (ip), vehicle: saline); 109 % of control under setting [9]; 93 % of control (dose: 200.0 mg/kg/injection, schedule: Q01DX009 (ip), vehicle: saline); 104 % of control under setting [11]; 96 % of control (dose: 400.0 mg/kg/injection, schedule: Q01DX009 (ip), vehicle: saline); 110 % of control under setting [13].
As to `CN(Cc1cnc2nc(N)nc(N)c2n1)c1ccc(C(=O)NC(CCC(=O)O)C(=O)O)c(Cl)c1` (configuration not stated), the T/C (dose: 25.0 mg/kg/injection, schedule: Q01DX009 (ip), vehicle: sodium bicarbonate) is 154 % of control.
As for `O=C(Nc1cccc(F)c1)Nc1cc(C(F)(F)F)ccc1Cl`, the T/C was 96 % of control under setting [17]; 95 % of control and 97 % of control under setting [18]; 96 % of control under setting [19]; 88 % of control (dose: 400.0 mg/kg/injection, schedule: Q01DX009 (ip), vehicle: saline with Tween-80).
On to `CC1(C)CC(=O)C2=C(C1)Nc1ccccc1NC2c1ccccc1` (configuration not stated), for which the T/C by setting is: (dose: 50.0 mg/kg/injection, schedule: Q04DX002 (ip), vehicle: Klucel (hydroxypropylcellulose) (HPC)) 92 % of control; under setting [5], 110 % of control and 113 % of control; under setting [6], 92 % of control; under setting [7], 98 % of control.
Consider `O=C(O)Cn1c(=O)n(CC(=O)O)c2ccccc21`, for which the T/C is 93 % of control under setting [20], 98 % of control under setting [21] and 98 % of control under setting [22].
Turning to `CCOC(=O)Nc1cc(N(C)CC(O)CN(C)c2ccccc2)c([N+](=O)[O-])c(N)n1` (configuration not stated), the T/C under setting [14] is 101 % of control, the T/C under setting [15] is 104 % of control and the T/C under setting [16] was 97 % of control.
For `CC(C)C1(C)C(=O)N(C)C(=O)N1Br` (configuration not stated), the T/C is 102 % of control (dose: 50.0 mg/kg/injection, schedule: Q01DX009 (ip), vehicle: Klucel (hydroxypropylcellulose) (HPC)); 100 % of control (dose: 50.0 mg/kg/injection, schedule: Q04DX003 (ip), vehicle: Klucel (hydroxypropylcellulose) (HPC)); 107 % of control under setting [14]; 96 % of control under setting [8]; 97 % of control under setting [23]; 98 % of control under setting [15]. The T/C is, setting by setting: under setting [24], 105 % of control; under setting [16], 98 % of control.
As for `CC1CCN(c2ccc([N+](=O)[O-])cc2)CC1`, the T/C is, setting by setting: under setting [8], 100 % of control; under setting [23], 97 % of control; under setting [10], 99 % of control; under setting [24], 95 % of control; under setting [12], 100 % of control; (dose: 400.0 mg/kg/injection, schedule: Q04DX003 (ip), vehicle: Klucel (hydroxypropylcellulose) (HPC)) 101 % of control.
Consider `OCC1CCCCC1Cc1ccc(F)c2ccccc12` (configuration not stated), for which the T/C was 98 % of control under setting [14], 93 % of control under setting [15] and 102 % of control under setting [16].
`O=C(O)c1ccc2ccccc2n1.[Cu+2]`: the T/C under setting [1] was 93 % of control.
